Like-named read-outs stand apart in the source and are kept apart here.
Key:
Type in all cases: in vivo
[1] = tested on: Uncinula necator on vines; assay: Greenhouse trial, 1 day residual, Uncinula necator on vines; conditions: Table XVIII, compound alone
Protocol: (§1) The trials are carried out under greenhouse (Examples 1 to 18) or field conditions (Example 19) in residual or curative applications. The fungicides are applied in single treatments, or in a combination comprising a benzophenone of formula I and a compound selected from (A) through (E) as defined above. The compounds are applied in form of an aqueous spray mix obtained from a concentrated formulation or the technical material.
(§2) 1. Seed is planted in 6 cm diameter plastic pots and maintained in the greenhouse.
(§3) 2. When the primary leaf is fully expanded (in the case of cereals) or several leaves are present (in the case of dicots), formulated test compounds are sprayed with a three nozzle overhead fungicide sprayer to near run-off. Alternatively, a single nozzle overhead track sprayer is used for application of the compounds to cereals at a rate of 200 liters/ha (l/ha). Plants are then allowed to air-dry.
(§4) 3. Inoculation precedes treatment in the case of curative evaluations and follows treatment in case of residual evaluations. For inoculation of powdery mildew disease, plants are set up on greenhouse benches with bottom watering mats and inoculated by dusting them with conidia from infected plants. Between inoculation and treatment for curative evaluations and between treatment and inoculation for residual evaluations, plants are maintained in the greenhouse with bottom watering. For inoculation of non-powdery mildew diseases, an aqueous spore suspension of the pathogen is applied to the plant and the plants are kept 1-2 days in a moist infection chamber before being returned to the greenhouse where they are maintained by bottom watering.
(§5) 4. Disease on the foliage as percent leaf area with disease symptoms/signs is evaluated about 7 days after inoculation. In the case of wheat, the tips and bases of the leaves are excluded from the evaluation. [formula]
(§6) 1. Technical compounds are formulated in a solvent/surfactant system consisting of 5% acetone and 0.05% Tween 20 in deionized water. Compounds are dissolved in acetone prior to addition of the water; the Tween 20 can be added through either the acetone or the water. Dilutions are made using the solvent/surfactant system. Formulated compounds are prepared using deionized water.
(§7) Assessments of the diseases took place at the indicated day after the application of the compounds. Per cent infected leaf area infected was evaluated. The efficacy of the compounds/compounds mixtures to control the diseases was calculated by using the formula given above under item 4: […]
(§8) Synergy of a fungicide mixture was determined by comparing the actual (observed) fungicidal activity of the mixture to the expected fungicidal activity of the mixture as calculated using the COLBY formula given hereinabove.
Fungicidal Efficacy of the Mixture of BP-4+AP-4 (1 Day Residual) Against Uncinula necator on Vines
The tank mixes were obtained from technical material of BP-4 and AP-4. The active ingredients, the type of formulations, the observed and expected efficacies with different rates are given in Table XVIII: […]

[2] = tested on: Pyrenophora teres on barley; assay: Greenhouse trial, 4 day residual, Pyrenophora teres on barley; conditions: Pyrenophora teres, 96 h, 4 day residual, read-out: Observed Efficacy; for pest or weed control at 0.4 ppm: dose rate 0.4 ppm; for pest or weed control at 2 ppm: dose rate 2 ppm; for pest or weed control at 10 ppm: dose rate 10 ppm; for pest or weed control at 50 ppm: dose rate 50 ppm
[3] = tested on: Puccinia recondita on wheat; assay: Greenhouse trial, 4 day residual, Puccinia recondita on wheat; conditions: Puccinia recondita, 96 h, read-out: Observed Efficacy; for pest or weed control at 4 ppm: dose rate 4 ppm; for pest or weed control at 16 ppm: dose rate 16 ppm; for pest or weed control at 64 ppm: dose rate 64 ppm; for pest or weed control at 256 ppm: dose rate 256 ppm; for pest or weed control at 0.4 ppm: dose rate 0.4 ppm; for pest or weed control at 2 ppm: dose rate 2 ppm; for pest or weed control at 10 ppm: dose rate 10 ppm; for pest or weed control at 50 ppm: dose rate 50 ppm
How it was run: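 Wheat plants sprayed at primary-leaf stage with compounds, alone or in mixtures, in 5% acetone/0.05% Tween 20 water, then inoculated 4 days later with Puccinia recondita spore suspension and held 1-2 days in a moist chamber. Percent diseased leaf area scored about 7 days post-inoculation, excluding leaf tips and bases; efficacy calculated, synergy by Colby.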

[4] = tested on: Blumeria graminis f. sp. tritici on wheat; assay: Greenhouse trial, 2 day curative, Blumeria graminis f. sp. tritici on wheat; conditions: Table XVII, compound alone
Protocol: as §1, §2, §3, §4, §5, §6, §7, §8
Fungicidal Efficacy of the Mixture of Different Benzophenones+Metconazole (2 Day Curative) Against Blumeria graminis f. sp. tritici on Wheat
The tank mixes were obtained from technical material of the benzophenones BP-2 and BP-4 and metconazole.

[5] = tested on: Leptosphaeria nodorum on wheat; assay: Greenhouse trial, 4 day residual, Leptosphaeria nodorum on wheat; conditions: Parastagonospora nodorum, 96 h, compound alone, read-out: Observed Efficacy; for pest or weed control at 4 ppm: dose rate 4 ppm; for pest or weed control at 16 ppm: dose rate 16 ppm; for pest or weed control at 64 ppm: dose rate 64 ppm; for pest or weed control at 256 ppm: dose rate 256 ppm
How it was run: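 Wheat at full primary-leaf expansion sprayed with aqueous formulated compounds or mixtures (technical material in 5% acetone/0.05% Tween 20) to near run-off or at 200 l/ha, inoculated 4 days later with spore suspension and held 1-2 days in a moist chamber. Percent diseased leaf area scored about 7 days post-inoculation, excluding leaf tips and bases; synergy judged by Colby formula.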

[6] = tested on: Erysiphe cichoracearum on cucumbers; assay: Greenhouse trial, 4 day residual, Erysiphe cichoracearum on cucumbers; conditions: Golovinomyces cichoracearum, 96 h, read-out: Observed Efficacy; for pest or weed control at 0.4 ppm: dose rate 0.4 ppm; for pest or weed control at 2 ppm: dose rate 2 ppm; for pest or weed control at 10 ppm: dose rate 10 ppm; for pest or weed control at 50 ppm: dose rate 50 ppm
How it was run: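 Cucumber plants were sprayed to near run-off with compounds or mixtures (5% acetone/0.05% Tween 20 aqueous). Four days later they were inoculated by dusting with Erysiphe cichoracearum conidia. Percent diseased leaf area was assessed about 7 days after inoculation, and efficacy and Colby synergy were calculated from it.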

[7] = Table XV (Example 15), 4 day residual
[8] = Table XIV (Example 14), 4 day residual

SMILES: COc1cc(C)c(C(=O)c2c(OC)ccc(Br)c2C)c(OC)c1OC [BP-4, 5-bromo-2′,6-dimethyl-2,4′,5′,6′-tetramethoxybenzophenone]
- Observed Efficacy ([1]; dose rate 0.25 ppm): 0%
- Observed Efficacy ([1]; dose rate 0.5 ppm): 21%
- Observed Efficacy ([1]; dose rate 1 ppm): 28%
- Observed Efficacy ([1]; dose rate 2 ppm): 9%
- Observed Efficacy ([1]; dose rate 4 ppm): 43%
- Observed Efficacy ([1]; dose rate 8 ppm): 42%
- pest or weed control at 0.4 ppm ([2]; Table XIII (Example 13)): 0%
- pest or weed control at 2 ppm ([2]; Table XIII (Example 13)): 0%
- pest or weed control at 10 ppm ([2]; Table XIII (Example 13)): 34%
- pest or weed control at 50 ppm ([2]; Table XIII (Example 13)): 58%
- pest or weed control at 0.4 ppm ([2]; Table XVI (Example 16)): 0%
- pest or weed control at 2 ppm ([2]; Table XVI (Example 16)): 0%
- pest or weed control at 10 ppm ([2]; Table XVI (Example 16)): 0%
- pest or weed control at 50 ppm ([2]; Table XVI (Example 16)): 11%
- pest or weed control at 4 ppm ([3]; Table IX, compound alone): 6%
- pest or weed control at 16 ppm ([3]; Table IX, compound alone): 4%
- pest or weed control at 64 ppm ([3]; Table IX, compound alone): 16%
- pest or weed control at 256 ppm ([3]; Table IX, compound alone): 38%
- pest or weed control at 4 ppm ([3]; Table VII, compound alone): 0%
- pest or weed control at 16 ppm ([3]; Table VII, compound alone): 0%
- pest or weed control at 64 ppm ([3]; Table VII, compound alone): 0%
- pest or weed control at 256 ppm ([3]; Table VII, compound alone): 13%
- pest or weed control at 0.4 ppm ([3]; Table XII, compound alone): 2%
- pest or weed control at 2 ppm ([3]; Table XII, compound alone): 7%
- pest or weed control at 10 ppm ([3]; Table XII, compound alone): 10%
- pest or weed control at 50 ppm ([3]; Table XII, compound alone): 31%
- pest or weed control at 0.4 ppm [3, 7]: 0%
- pest or weed control at 2 ppm [3, 7]: 0%
- pest or weed control at 10 ppm [3, 7]: 6%
- pest or weed control at 50 ppm [3, 7]: 12%
- Observed Efficacy ([4]; dose rate 0.67 ppm): 9%
- Observed Efficacy ([4]; dose rate 2 ppm): 27%
- Observed Efficacy ([4]; dose rate 6 ppm): 42%
- Observed Efficacy ([4]; dose rate 18 ppm): 78%
- Observed Efficacy ([4]; dose rate 54 ppm): 92%
- pest or weed control at 4 ppm ([5]; Table VIII): 0%
- pest or weed control at 16 ppm ([5]; Table VIII): 0%
- pest or weed control at 64 ppm ([5]; Table VIII): 14%
- pest or weed control at 256 ppm ([5]; Table VIII): 34%
- pest or weed control at 4 ppm ([5]; Table X): 0%
- pest or weed control at 16 ppm ([5]; Table X): 10%
- pest or weed control at 64 ppm ([5]; Table X): 18%
- pest or weed control at 256 ppm ([5]; Table X): 44%
- pest or weed control at 1 ppm ([6]; Table VI, compound alone, dose rate 1 ppm): 1%
- pest or weed control at 4 ppm ([6]; Table VI, compound alone, dose rate 4 ppm): 6%
- pest or weed control at 16 ppm ([6]; Table VI, compound alone, dose rate 16 ppm): 51%
- pest or weed control at 64 ppm ([6]; Table VI, compound alone, dose rate 64 ppm): 100%
- pest or weed control at 0.4 ppm ([6]; Table XI, compound alone): 0%
- pest or weed control at 2 ppm ([6]; Table XI, compound alone): 2%
- pest or weed control at 10 ppm ([6]; Table XI, compound alone): 55%
- pest or weed control at 50 ppm ([6]; Table XI, compound alone): 96%
- pest or weed control at 0.4 ppm [6, 8]: 0%
- pest or weed control at 2 ppm [6, 8]: 0%
- pest or weed control at 10 ppm [6, 8]: 13%
- pest or weed control at 50 ppm [6, 8]: 97%

— US6346535B1, “Fungicidal mixtures” (American Cyanamid Company, priority 1999, dated 2002)
